Laboratory results: PubChem BioAssay AID1963840 (Molecular Pharmacology Branch, DTP, NCI, 2024)

Test system: 695427-040-R-J1-PDC complex spheroid viability
Assay: Anticancer human tumor 695427-040-R-J1-PDC patient-derived colon adenocarcinoma cell line growth inhibition [POLQ]
Details: for IC50: curve of first compound; for viability, T/C: stronger effect = lower value
Summary of the method: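 Complex spheroid viability model combining PDC tumour cells with endothelial (HUVEC) and MSC stromal cells. Novobiocin, ART-558 or RP6685 were tested singly and in combination with standard and investigational anticancer drugs. Each was titrated in half-log steps from near clinical Cmax, or from 10 microM where Cmax was unknown.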

[1] = second compound 0.0316 µM, first compound 0.0316 µM
[2] = second compound 0.0316 µM, first compound 0.1 µM
[3] = second compound 0.0316 µM, first compound 0.316 µM
[4] = second compound 0.0316 µM, first compound 1 µM
[5] = second compound 0.0316 µM, first compound 3.16 µM
[6] = second compound 0.0316 µM, first compound 10 µM
[7] = second compound 0.1 µM, first compound 0.0316 µM
[8] = second compound 0.1 µM, first compound 0.1 µM
[9] = second compound 0.1 µM, first compound 0.316 µM
[10] = second compound 0.1 µM, first compound 1 µM
[11] = second compound 0.1 µM, first compound 3.16 µM
[12] = second compound 0.1 µM, first compound 10 µM
[13] = second compound 0.316 µM, first compound 0.0316 µM
[14] = second compound 0.316 µM, first compound 0.1 µM
[15] = second compound 0.316 µM, first compound 0.316 µM
[16] = second compound 0.316 µM, first compound 1 µM
[17] = second compound 0.316 µM, first compound 3.16 µM
[18] = second compound 0.316 µM, first compound 10 µM
[19] = second compound 1 µM, first compound 0.0316 µM
[20] = second compound 1 µM, first compound 0.1 µM
[21] = second compound 1 µM, first compound 0.316 µM
[22] = second compound 1 µM, first compound 1 µM
[23] = second compound 1 µM, first compound 3.16 µM
[24] = second compound 1 µM, first compound 10 µM
[25] = second compound 3.16 µM, first compound 0.0316 µM
[26] = second compound 3.16 µM, first compound 0.1 µM
[27] = second compound 3.16 µM, first compound 0.316 µM
[28] = second compound 3.16 µM, first compound 1 µM
[29] = second compound 3.16 µM, first compound 3.16 µM
[30] = second compound 3.16 µM, first compound 10 µM
[31] = second compound 10 µM, first compound 0.0316 µM
[32] = second compound 10 µM, first compound 0.1 µM
[33] = second compound 10 µM, first compound 0.316 µM
[34] = second compound 10 µM, first compound 1 µM
[35] = second compound 10 µM, first compound 3.16 µM
[36] = second compound 10 µM, first compound 10 µM
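Further: spheroids exposed to compounds for seven days.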
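Wherever viability, T/C is given: 100% = DMSO vehicle control viability.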

CNCc1ccc(-c2[nH]c3cc(F)cc4c3c2CCNC4=O)cc1 + Cc1cccc(N(C)C(=O)C2C(O)CCN2c2nc(C)cc(C(F)(F)F)c2C#N)c1
IC50 (second compound 0.0316 µM): > 10 µM
IC50 (second compound 0.1 µM): > 10 µM
IC50 (second compound 0.316 µM): > 10 µM
IC50 (second compound 1 µM): > 10 µM
IC50 (second compound 3.16 µM): > 10 µM
IC50 (second compound 10 µM): > 10 µM
viability, T/C [1]: 102%
viability, T/C [2]: 104%
viability, T/C [3]: 105%
viability, T/C [4]: 96.8%
viability, T/C [5]: 108%
viability, T/C [6]: 109%
viability, T/C [7]: 111%
viability, T/C [8]: 100%
viability, T/C [9]: 95.9%
viability, T/C [10]: 95.3%
viability, T/C [11]: 105%
viability, T/C [12]: 108%
viability, T/C [13]: 104%
viability, T/C [14]: 99.3%
viability, T/C [15]: 104%
viability, T/C [16]: 103%
viability, T/C [17]: 102%
viability, T/C [18]: 99.6%
viability, T/C [19]: 92.7%
viability, T/C [20]: 93.9%
viability, T/C [21]: 93.6%
viability, T/C [22]: 98%
viability, T/C [23]: 110%
viability, T/C [24]: 102%
viability, T/C [25]: 99%
viability, T/C [26]: 98.1%
viability, T/C [27]: 98.4%
viability, T/C [28]: 103%
viability, T/C [29]: 108%
viability, T/C [30]: 104%
viability, T/C [31]: 92.3%
viability, T/C [32]: 92.1%
viability, T/C [33]: 88.9%
viability, T/C [34]: 93.2%
viability, T/C [35]: 104%
viability, T/C [36]: 104%

COc1cccc(OCCCN)c1-c1cc(Nc2cnc(C#N)cn2)n[nH]1 + Cc1cccc(N(C)C(=O)C2C(O)CCN2c2nc(C)cc(C(F)(F)F)c2C#N)c1
IC50 (second compound 0.0316 µM): > 1 µM
IC50 (second compound 0.1 µM): > 1 µM
IC50 (second compound 0.316 µM): > 1 µM
IC50 (second compound 1 µM): > 1 µM
IC50 (second compound 3.16 µM): > 1 µM
IC50 (second compound 10 µM): 0.295 µM
viability, T/C (second compound 0.0316 µM, first compound 0.00316 µM): 95.4%
viability, T/C (second compound 0.0316 µM, first compound 0.01 µM): 107%
viability, T/C [1]: 96%
viability, T/C [2]: 82.5%
viability, T/C [3]: 70.5%
viability, T/C [4]: 51%
viability, T/C (second compound 0.1 µM, first compound 0.00316 µM): 109%
viability, T/C (second compound 0.1 µM, first compound 0.01 µM): 95.7%
viability, T/C [7]: 88.3%
viability, T/C [8]: 80.1%
viability, T/C [9]: 71.3%
viability, T/C [10]: 48.3%
viability, T/C (second compound 0.316 µM, first compound 0.00316 µM): 105%
viability, T/C (second compound 0.316 µM, first compound 0.01 µM): 97.5%
viability, T/C [13]: 87%
viability, T/C [14]: 77%
viability, T/C [15]: 67.8%
viability, T/C [16]: 52.5%
viability, T/C (second compound 1 µM, first compound 0.00316 µM): 105%
viability, T/C (second compound 1 µM, first compound 0.01 µM): 95.3%
viability, T/C [19]: 91.6%
viability, T/C [20]: 75%
viability, T/C [21]: 70.4%
viability, T/C [22]: 51.8%
viability, T/C (second compound 3.16 µM, first compound 0.00316 µM): 100%
viability, T/C (second compound 3.16 µM, first compound 0.01 µM): 87.8%
viability, T/C [25]: 86.5%
viability, T/C [26]: 82%
viability, T/C [27]: 69.7%
viability, T/C [28]: 55.3%
viability, T/C (second compound 10 µM, first compound 0.00316 µM): 85.9%
viability, T/C (second compound 10 µM, first compound 0.01 µM): 89.1%
viability, T/C [31]: 75.8%
viability, T/C [32]: 63.7%
viability, T/C [33]: 48.8%
viability, T/C [34]: 43.5%

Nc1ccn(C2OC(CO)C(O)C2(F)F)c(=O)n1 (stereo not drawn) + Cc1cccc(N(C)C(=O)C2C(O)CCN2c2nc(C)cc(C(F)(F)F)c2C#N)c1
IC50 (second compound 0.0316 µM): > 10 µM
IC50 (second compound 0.1 µM): > 10 µM
IC50 (second compound 0.316 µM): > 10 µM
IC50 (second compound 1 µM): > 10 µM
IC50 (second compound 3.16 µM): > 10 µM
IC50 (second compound 10 µM): > 10 µM
viability, T/C [1]: 83%
viability, T/C [2]: 79.4%
viability, T/C [3]: 76.4%
viability, T/C [4]: 72.6%
viability, T/C [5]: 68%
viability, T/C [6]: 52.4%
viability, T/C [7]: 93.8%
viability, T/C [8]: 87.9%
viability, T/C [9]: 77.4%
viability, T/C [10]: 70.8%
viability, T/C [11]: 63.5%
viability, T/C [12]: 54.2%
viability, T/C [13]: 103%
viability, T/C [14]: 87.8%
viability, T/C [15]: 71.2%
viability, T/C [16]: 72.8%
viability, T/C [17]: 66.3%
viability, T/C [18]: 55.8%
viability, T/C [19]: 90.9%
viability, T/C [20]: 82.7%
viability, T/C [21]: 71%
viability, T/C [22]: 70.8%
viability, T/C [23]: 66.5%
viability, T/C [24]: 55.1%
viability, T/C [25]: 91.8%
viability, T/C [26]: 80.8%
viability, T/C [27]: 75.5%
viability, T/C [28]: 68.3%
viability, T/C [29]: 70.2%
viability, T/C [30]: 57.6%
viability, T/C [31]: 84.9%
viability, T/C [32]: 86.4%
viability, T/C [33]: 75.6%
viability, T/C [34]: 72.5%
viability, T/C [35]: 69.5%
viability, T/C [36]: 58.5%

O=C(c1cc(Cc2n[nH]c(=O)c3ccccc23)ccc1F)N1CCN(C(=O)C2CC2)CC1 + Cc1cccc(N(C)C(=O)C2C(O)CCN2c2nc(C)cc(C(F)(F)F)c2C#N)c1
IC50 (second compound 0.0316 µM): > 10 µM
IC50 (second compound 0.1 µM): > 10 µM
IC50 (second compound 0.316 µM): > 10 µM
IC50 (second compound 1 µM): > 10 µM
IC50 (second compound 3.16 µM): > 10 µM
IC50 (second compound 10 µM): > 10 µM
viability, T/C [1]: 107%
viability, T/C [2]: 98.3%
viability, T/C [3]: 101%
viability, T/C [4]: 103%
viability, T/C [5]: 104%
viability, T/C [6]: 93.9%
viability, T/C [7]: 111%
viability, T/C [8]: 101%
viability, T/C [9]: 97.9%
viability, T/C [10]: 100%
viability, T/C [11]: 113%
viability, T/C [12]: 95.3%
viability, T/C [13]: 109%
viability, T/C [14]: 101%
viability, T/C [15]: 99%
viability, T/C [16]: 93.1%
viability, T/C [17]: 98.4%
viability, T/C [18]: 96.9%
viability, T/C [19]: 98.5%
viability, T/C [20]: 94.5%
viability, T/C [21]: 97.6%
viability, T/C [22]: 92.8%
viability, T/C [23]: 101%
viability, T/C [24]: 91.2%
viability, T/C [25]: 103%
viability, T/C [26]: 94%
viability, T/C [27]: 102%
viability, T/C [28]: 91.4%
viability, T/C [29]: 103%
viability, T/C [30]: 103%
viability, T/C [31]: 89.4%
viability, T/C [32]: 88%
viability, T/C [33]: 97.9%
viability, T/C [34]: 90.4%
viability, T/C [35]: 92.3%
viability, T/C [36]: 78.9%
